Data from patent US5854388A, “Angiotensin IV peptides and receptor” (Washington State University Research Foundation, priority 1994, dated 1998).
“Also recorded” adds a separate entry of the source.

Assays:
[1] = test system: AT4 receptor; format: binding, rat; conditions: brain, heart, kidney, aorta, lung, liver, cultured smooth muscle cells
Description: A second major approach to defining separate and distinct binding sites was to examine their relative tissue and species distribution (Table 8).
*25 μg of membrane protein was incubated with 500,000 cpm of label.
Specific binding was defined as total […]
At this time, the significance of this finding is uncertain.

[2] = biological target: T1, AT4 receptor (Bos taurus, UniProt F1N1Q8); assay: 125I-AIV binding and competition, bovine adrenal cortical membranes
T1 sequence (F1N1Q8 1-1022): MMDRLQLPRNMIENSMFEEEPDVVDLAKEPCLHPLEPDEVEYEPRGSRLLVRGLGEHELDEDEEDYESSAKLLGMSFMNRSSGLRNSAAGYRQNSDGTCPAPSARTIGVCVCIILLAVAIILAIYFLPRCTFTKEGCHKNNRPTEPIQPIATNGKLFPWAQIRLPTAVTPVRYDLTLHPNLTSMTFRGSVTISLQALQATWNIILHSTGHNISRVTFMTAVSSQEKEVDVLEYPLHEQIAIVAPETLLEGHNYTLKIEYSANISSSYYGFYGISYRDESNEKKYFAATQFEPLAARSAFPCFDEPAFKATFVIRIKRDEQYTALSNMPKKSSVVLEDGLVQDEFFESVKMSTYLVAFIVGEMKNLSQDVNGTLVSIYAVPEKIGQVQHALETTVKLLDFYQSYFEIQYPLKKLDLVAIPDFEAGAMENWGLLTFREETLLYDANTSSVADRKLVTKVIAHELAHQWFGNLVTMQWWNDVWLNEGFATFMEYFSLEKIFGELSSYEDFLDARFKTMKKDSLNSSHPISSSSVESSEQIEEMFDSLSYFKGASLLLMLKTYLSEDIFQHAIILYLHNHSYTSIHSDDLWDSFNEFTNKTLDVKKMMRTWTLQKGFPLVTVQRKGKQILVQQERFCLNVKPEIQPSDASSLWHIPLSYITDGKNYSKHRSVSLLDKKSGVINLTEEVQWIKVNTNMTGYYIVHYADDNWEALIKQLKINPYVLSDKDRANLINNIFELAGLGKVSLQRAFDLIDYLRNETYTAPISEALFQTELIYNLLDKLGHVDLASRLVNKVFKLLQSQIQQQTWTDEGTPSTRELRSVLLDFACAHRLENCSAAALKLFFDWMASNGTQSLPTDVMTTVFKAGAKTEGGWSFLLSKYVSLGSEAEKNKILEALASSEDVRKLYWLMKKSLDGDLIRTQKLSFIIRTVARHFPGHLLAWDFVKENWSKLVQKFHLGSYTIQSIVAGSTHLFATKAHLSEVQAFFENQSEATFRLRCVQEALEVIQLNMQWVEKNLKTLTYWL

[3] = test system: rats; assay: Passive avoidance conditioning after icv injection; format: in vivo, rat
[4] = biological target: T1, AT4 receptor; assay: 125I-AIV binding and competition, solubilized bovine adrenal cortical receptor
[5] = test system: bovine endothelial cells; assay: Endothelial cell growth (thymidine incorporation) and EDRF production; format: cell-based
Description: Cells were grown at 37° C. in 35 mm culture plates […] under 5% CO2 /95% air in Dulbecco's Modified Eagle's Medium (DMEM) supplemented with 5 μg/ml insulin and 10% (v/v) newborn bovine serum (NBBS). […] Negative controls were also included using ethidium bromide (1 mM). The cells were harvested at various times, and cellular lysates were prepared for scintillation counting by lysing and washing the cells on glass fiber filters.
Bovine aortic endothelial cells were grown at 37° C. in 35 mm culture plates under 5% CO2 in air in Dulbecco's Modified Eagle's Medium (DMEM) supplemented with 5 μg/ml insulin and 10% (v/v) newborn bovine serum (NBBS). The medium was aspirated 10-12 hours after seeding and replaced with serum-free medium. The medium was again aspirated 10-12 hours later and replaced with either test or control medium. Control medium was DMEM with 5 µg/ml insulin and 2%, 5%, or 10% (v/v) NBBS as indicated. […] The medium was changed every 48 h (i.e., with supportive DMEM medium for the remainder of the experiment).
As an adjunct to the determination of cell numbers, thymidine incorporation was measured. […] This material was then filtered under vacuum through 2.4 cm glass fiber filters (GF/A, Whatman), and the filters were washed twice with 10 ml of absolute ethanol and assayed for radioactivity by scintillation counting.

[6] = arterial and venous blood in man; cited from earlier work
[7] = test system: cardiocytes; assay: Hypertrophic action of AII on cardiocytes; format: cell-based
[8] = test system: rat kidney; assay: Renal cortical blood flow (laser doppler) and arterial pressure after infusion into the renal artery; format: in vivo
[9] = biological target: T2, AT1 receptor (AII receptor) (Bos taurus, UniProt P25104); format: binding, bovine; conditions: competition
T2 construct: from tissue; host or cells: bovine adrenal cortex membranes
T2 sequence (P25104 1-359): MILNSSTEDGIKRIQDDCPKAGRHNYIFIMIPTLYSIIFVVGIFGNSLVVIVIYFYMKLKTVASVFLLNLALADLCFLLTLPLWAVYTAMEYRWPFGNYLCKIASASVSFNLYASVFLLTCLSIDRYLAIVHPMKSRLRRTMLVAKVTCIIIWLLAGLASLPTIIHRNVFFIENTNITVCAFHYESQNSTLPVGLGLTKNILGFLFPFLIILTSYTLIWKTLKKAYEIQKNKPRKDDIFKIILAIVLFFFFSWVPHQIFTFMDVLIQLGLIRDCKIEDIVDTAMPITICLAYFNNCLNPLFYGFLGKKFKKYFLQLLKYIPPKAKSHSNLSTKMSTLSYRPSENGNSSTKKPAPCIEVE

[10] = biological target: T1, AT4 receptor; assay: 125I-AIV binding, aortic endothelial cell (BAEC) membranes; parameters: species or system bovine; conditions: 0.6 nM 125I-AIV
[11] = test system: AT1 receptors; assay: GTPγS effect on 125I-AII binding, rat vascular smooth muscle cell (RVSMC) membranes; conditions: 0.5 nM 125I-AII

Compound	binding in rat tissues (in words) [1]	Bmax [2]	passive avoidance latency / cognitive effect (in words) [3]	off-rate t1/2 [4] [h]	EDRF production [5]	endothelial cell proliferation (thymidine incorporation) [5]	half-lives [6] [min]	effect on hypertrophic action of AII [7]	effect on renal blood flow (in words) ([8]; infusion into renal artery)	effect of preinfusion on blood flow response to another ligand ([8]; rat, in vivo)	agonist / antagonist activity (in words) ([8]; renal blood flow response compared to AIV)	Ki [9] [µM]	effect on 125I-AIV binding [10]	effect on 125I-AII binding [11]
CC[C@H](C)[C@H](NC(=O)[C@H](Cc1ccc(O)cc1)NC(=O)[C@@H](N)C(C)C)C(=O)N[C@@H](Cc1cnc[nH]1)C(=O)N1CCC[C@H]1C(=O)N[C@@H](Cc1ccccc1)C(=O)O [AIV, Val1 Tyr2 Ile3 His4 Pro5 Phe6]	not been possible to demonstrate binding	3.82±1.12	significantly elevated latency times	4.873	stimulating production of endothelial cell relaxing factor (EDRF)	enhancing cellular proliferation	1.9	antagonizes the hypertrophic action of AII	profound and long-lasting increase in blood flow; also recorded: equally dramatic increase in flow; also recorded: dramatically increase renal blood flow and urine flow in a dose-dependent fashion	completely blocked the constrictive action of AII	full agnoistic activity	> 1		
Nc1nc2c(ncn2[C@@H]2O[C@H](COP(=O)(O)OP(=O)(O)OP(O)(O)=S)[C@@H](O)[C@H]2O)c(=O)[nH]1 [GTPγS]													no effect; also recorded: did not inhibit (or alter) binding	inhibited
